From patent US10526585B2 (priority 2015, dated 2020) come the findings set out here.

The test is classed as biochemical. The note with it: pH 7.5.
For `[Zn+2]` [Zn^2+], the “DON [ppm]” value was 2.46 ppm.
As for tryptophan tryptophylquinone [TTQ], the “DON [ppm]” value came out at 2.32 ppm.
For the compound `[Ca+2]` [Ca^2+], the “DON [ppm]” value amounted to 1.98 ppm.
Regarding `[Fe+2]` [Fe^2+], the “DON [ppm]” value is given as 2.17 ppm.
The result for `N[C@@H](CCCCNC1=CC(=O)C(=O)C=C1C[C@H](N)C(=O)O)C(=O)O` [LTQ, lysine tyrosylquinone] reads 2.04 ppm; that for topaquinone [TPQ], 2.41 ppm; that for `[Mg+2]` [Mg^2+], 1.90 ppm.
The result for `[Cu+2]` [Cu^2+] reads 2.61 ppm; that for `COC1=C(OC)C(=O)C(CC=C(C)C)=C(C)C1=O` [coenzyme Q1], 8.58 ppm; that for `CN(C)c1ccc2nc3ccc(=[N+](C)C)cc-3sc2c1` [methylene blue], 6.88 ppm.
As for `[Mn+2]` [Mn^2+], the “DON [ppm]” value is given as 2.57 ppm.
On to `COS(=O)(=O)[O-].C[n+]1c2ccccc2nc2ccccc21` [PMS, phenazine methosulphate], for which the “DON [ppm]” value is 1.95 ppm.
In the case of `O=C(O)c1cc(C(=O)O)c2c(n1)C(=O)C(=O)c1cc(C(=O)O)[nH]c1-2` [PCC, pyrroloquinoline quinone], the “DON [ppm]” value is on record as 1.94 ppm.
